Results as given in BindingDB's records for doi:10.1016/0014-2999(92)90578-r (Novo Nordisk, 1992).
Several values for one entry are separate records, joined by “and”; a condition that tells them apart may be missing. Equal entries are not always repeated.

Legend:
[1] = target: Adenylate cyclase type 2 (Rattus norvegicus, UniProt P26769)
[2] = target: 5-hydroxytryptamine receptor 2A (Rattus norvegicus, UniProt P14842)
[3] = target: D(2) dopamine receptor (Rattus norvegicus, UniProt P61169)
[4] = target: D(1A) dopamine receptor (Rattus norvegicus, UniProt P18901)
Chain of D(1A) dopamine receptor (P18901 whole entry): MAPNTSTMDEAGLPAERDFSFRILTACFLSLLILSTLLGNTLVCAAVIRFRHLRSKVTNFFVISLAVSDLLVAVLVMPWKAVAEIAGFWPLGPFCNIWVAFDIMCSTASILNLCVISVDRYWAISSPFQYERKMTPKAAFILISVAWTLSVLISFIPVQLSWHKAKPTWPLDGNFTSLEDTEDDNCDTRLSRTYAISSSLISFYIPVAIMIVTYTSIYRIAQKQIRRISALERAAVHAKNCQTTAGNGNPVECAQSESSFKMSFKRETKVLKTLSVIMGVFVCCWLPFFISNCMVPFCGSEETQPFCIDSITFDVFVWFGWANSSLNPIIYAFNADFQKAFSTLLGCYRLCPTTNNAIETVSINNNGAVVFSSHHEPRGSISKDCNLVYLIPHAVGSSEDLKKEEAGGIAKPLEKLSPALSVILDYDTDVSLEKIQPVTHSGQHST

Chain of D(2) dopamine receptor (P61169 whole entry): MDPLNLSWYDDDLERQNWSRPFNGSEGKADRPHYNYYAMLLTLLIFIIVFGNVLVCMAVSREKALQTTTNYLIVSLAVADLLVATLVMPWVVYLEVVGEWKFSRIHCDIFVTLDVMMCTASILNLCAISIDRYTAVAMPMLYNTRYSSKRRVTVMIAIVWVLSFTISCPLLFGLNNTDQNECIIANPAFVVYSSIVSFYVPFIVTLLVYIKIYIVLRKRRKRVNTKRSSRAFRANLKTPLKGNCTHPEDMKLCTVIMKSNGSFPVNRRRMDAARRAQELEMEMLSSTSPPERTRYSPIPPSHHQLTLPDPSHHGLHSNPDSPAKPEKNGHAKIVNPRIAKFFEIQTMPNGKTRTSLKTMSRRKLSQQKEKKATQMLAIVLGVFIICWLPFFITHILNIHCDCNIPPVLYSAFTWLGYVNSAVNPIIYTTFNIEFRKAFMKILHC
Chain of 5-hydroxytryptamine receptor 2A (P14842 whole entry): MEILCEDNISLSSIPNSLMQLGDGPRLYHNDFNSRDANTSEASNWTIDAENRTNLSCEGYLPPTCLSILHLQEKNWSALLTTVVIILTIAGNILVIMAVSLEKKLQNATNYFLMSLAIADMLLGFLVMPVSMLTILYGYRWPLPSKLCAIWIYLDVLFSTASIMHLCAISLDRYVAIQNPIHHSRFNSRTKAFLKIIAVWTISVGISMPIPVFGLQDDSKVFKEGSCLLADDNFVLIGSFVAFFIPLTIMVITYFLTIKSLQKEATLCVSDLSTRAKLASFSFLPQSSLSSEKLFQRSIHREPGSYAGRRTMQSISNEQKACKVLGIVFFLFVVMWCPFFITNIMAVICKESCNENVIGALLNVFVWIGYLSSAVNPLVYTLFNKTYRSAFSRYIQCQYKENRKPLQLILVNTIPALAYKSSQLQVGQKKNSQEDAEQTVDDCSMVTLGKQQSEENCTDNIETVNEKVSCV
Chain of Adenylate cyclase type 2 (P26769 whole entry): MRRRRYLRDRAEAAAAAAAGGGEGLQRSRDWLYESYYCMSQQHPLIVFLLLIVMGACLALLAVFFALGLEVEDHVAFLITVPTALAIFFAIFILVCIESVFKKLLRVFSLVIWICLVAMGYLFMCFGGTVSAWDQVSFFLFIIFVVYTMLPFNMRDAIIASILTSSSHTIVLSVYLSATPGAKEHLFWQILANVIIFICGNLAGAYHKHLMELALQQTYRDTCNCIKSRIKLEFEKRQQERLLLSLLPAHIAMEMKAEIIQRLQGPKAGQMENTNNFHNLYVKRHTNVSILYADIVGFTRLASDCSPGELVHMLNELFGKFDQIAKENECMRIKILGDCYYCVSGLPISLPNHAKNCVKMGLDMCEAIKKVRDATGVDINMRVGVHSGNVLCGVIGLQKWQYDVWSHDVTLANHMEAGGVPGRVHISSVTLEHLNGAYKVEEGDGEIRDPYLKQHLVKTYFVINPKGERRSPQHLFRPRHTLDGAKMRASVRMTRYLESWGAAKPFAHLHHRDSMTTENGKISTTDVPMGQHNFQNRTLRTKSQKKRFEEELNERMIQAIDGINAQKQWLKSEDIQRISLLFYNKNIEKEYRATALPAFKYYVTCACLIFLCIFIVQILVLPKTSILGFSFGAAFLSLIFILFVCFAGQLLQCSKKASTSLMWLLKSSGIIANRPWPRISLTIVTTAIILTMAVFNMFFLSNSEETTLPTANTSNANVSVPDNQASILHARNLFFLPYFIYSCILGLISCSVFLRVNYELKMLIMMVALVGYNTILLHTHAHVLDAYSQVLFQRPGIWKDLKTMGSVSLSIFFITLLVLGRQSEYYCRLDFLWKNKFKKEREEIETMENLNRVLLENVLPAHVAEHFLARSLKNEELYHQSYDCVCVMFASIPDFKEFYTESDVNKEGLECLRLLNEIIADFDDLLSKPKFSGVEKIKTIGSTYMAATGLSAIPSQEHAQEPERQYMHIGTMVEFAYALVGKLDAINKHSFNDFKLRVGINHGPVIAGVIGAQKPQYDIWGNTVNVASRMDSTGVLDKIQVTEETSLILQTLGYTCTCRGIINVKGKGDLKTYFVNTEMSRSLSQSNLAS

Ki [1] [nM] | Ki [2] [nM] | Ki [3] | Ki [4] [nM] | Compound
2.2 | 4.5 | 942 nM | 0.17 | CN1CCc2cc(Cl)c(O)cc2C(c2cccc3c2OCC3)C1 (stereo not drawn) [NSC_132421]
39.9 | – | – | – | CN1CCc2cc(Cl)c(O)cc2[C@@H](c2ccccc2)C1 [SCH 23390,R(+)]
2.8 | – | 898 nM and 988 nM | – | CN1CCc2cc(Cl)c(O)cc2[C@@H](c2cccc3ccoc23)C1
9.1 | 355 | > 10000 nM | 5.8 | CN1CCc2cc([N+](=O)[O-])c(O)cc2C(c2cccc3c2OCC3)C1 (stereo not drawn) [CAS_164252]
415 | > 10000 | – | – | Oc1cc2c(cc1O)[C@@H](c1ccccc1)CNCC2
